Measured values published in US20130029959A1, “COMPOSITIONS AND METHODS FOR THE TREATMENT OF CANCER” (Massachusetts Institute of Technology, priority 2011, published 2013).
Entries after “also recorded” stand apart in the source; their conditions may differ.

Columns and labels:
[1] = tested on: human bone sarcoma U2OS cells; test: MTT assay, U2OS cells; assay type: cell-based; conditions: 72-h incubation
Protocol: Human colon carcinoma HT29, human breast carcinoma MCF7, human bone sarcoma U2OS, human prostate carcinoma PC3, and human cervix carcinoma HeLa cells were obtained from the ATCC. A2780/CP70 cisplatin-resistant human ovarian cancer cells were kindly provided by Dr. Stephen B. Howell (Moores UCSD Cancer Center) and the human lung carcinoma cell lines A549 and normal lung fibroblast MRC5 by David E. Root (Whitehead Institute for Biomedical Research). Cells were incubated at 37° C. in 5% CO2 and grown in RPMI (HT29, A2780/CP70, and PC3) or DMEM (A549, MRC5, HeLa, MCF7, and U2OS) medium supplemented with 10% fetal bovine serum and 1% penicillin/streptomycin. Cells were passed every 3 to 4 days and restarted from a frozen stock upon reaching pass number 20.
Solutions of the platinum compounds were freshly prepared in sterile PBS before use and their concentrations quantitated by atomic absorption spectroscopy. […] The cells were then treated with 20 μL of 3-(4,5-dimethylthiazol-2-yl)-2,5-diphenyltetrazolium bromide (MTT) (5 mg/mL in PBS) and incubated for 4 h. The medium was removed, 100 μL of DMSO was added to the cells, and the absorbance of the purple formazan was recorded at 560 nm using a BioTek Synergy HT multi-detection microplate plate reader. Each condition was performed in triplicate and three independent experiments were carried out for each cell line. […]

[2] = tested on: human colon carcinoma HT29 cells; test: MTT assay, HT29 cells; assay type: cell-based; conditions: HT29, 72-h incubation, Table 5
Protocol: Solutions of the platinum compounds were freshly prepared in sterile PBS before use and their concentrations quantitated by atomic absorption spectroscopy. Cells were seeded on a 96-well plate (1200 cells per well for cancer cells and 1800 cells per well for the normal lung fibroblasts) in 100 μL RPMI or DMEM media, and incubated for 24 h. […] The medium was removed, 100 μL of DMSO was added to the cells, and the absorbance of the purple formazan was recorded at 560 nm using a BioTek Synergy HT multi-detection microplate plate reader. […]

[3] = tested on: human lung carcinoma A549 cells; test: MTT assay, A549 cells; assay type: cell-based
Protocol: (§6) Solutions of the platinum compounds were freshly prepared in sterile PBS before use and their concentrations quantitated by atomic absorption spectroscopy. Cells were seeded on a 96-well plate (1200 cells per well for cancer cells and 1800 cells per well for the normal lung fibroblasts) in 100 μL RPMI or DMEM media, and incubated for 24 h. […] The cells were then treated with 20 μL of 3-(4,5-dimethylthiazol-2-yl)-2,5-diphenyltetrazolium bromide (MTT) (5 mg/mL in PBS) and incubated for 4 h. The medium was removed, 100 μL of DMSO was added to the cells, and the absorbance of the purple formazan was recorded at 560 nm using a BioTek Synergy HT multi-detection microplate plate reader. Each condition was performed in triplicate and three independent experiments were carried out for each cell line.
Solutions of the platinum agents were freshly prepared in sterile PBS before use and the platinum content was quantitated by AAS. Cells were seeded on 96 well plates (1200 cells per well) in 100 μL RPMI or DMEM media\ and incubated for 24 hours. […] The cells were then treated with 20 μL of 3-(4,5-dimethylthiazol-2-yl)-2,5-diphenyltetrazolium bromide (MTT) (5 mg/mL in PBS) and incubated for 4 h. The medium was removed, 100 μL of DMSO were added to the cells, and the absorbance of the purple formazan was recorded at 570 nm using a BioTek Synergy HT multi-detection microplate plate reader. For each cell line, three independent experiments were carried out in triplicate.

[4] = tested on: human cervix carcinoma HeLa cells; test: MTT assay, HeLa cells; assay type: cell-based; conditions: 72-h incubation, Table 5
Protocol: as §6
Solutions of the platinum agents were freshly prepared in sterile PBS before use and the platinum content was quantitated by AAS. […] The medium was removed, 100 μL of DMSO were added to the cells, and the absorbance of the purple formazan was recorded at 570 nm using a BioTek Synergy HT multi-detection microplate plate reader. […]

[5] = tested on: normal lung fibroblast MRC5; test: MTT assay, MRC5 cells; assay type: cell-based, human; conditions: MRC5, 72-h incubation, Table 5
Protocol: as §6

NTera2 (Testis) cells = test: MTT assay, NTera2 cells; assay type: cell-based, human; conditions: 72-h incubation, Table 3
Protocol: as §6

[6] = tested on: GLuc expression from transfected HT29 cells; test: GLuc transcription assay, globally platinated probes, HT29; assay type: cell-based, human; conditions: for transcription inhibition, in words: globally platinated probes; for transcription level (normalized against unplatinated plasmid): Pt/DNA ratio of […] for phenanthriplatin
Protocol: (§1) Transfection of transcription probes into A549 and HT29 cells with the pGLuc plasmid was carried out using liposomal transfecting agents. Determination of expression levels was tested by Luciferase assays monitored by a luminometer (J. Am. Chem. Soc. 2010, 132, 7429-7435). A549 cells were plated in 96-well plates at 2,000 cells/well and HT29 cells were plated in 96-well plates at 6,000 cells/well. After 48 h incubation (at ˜30% confluence), cells were transfected with 50 ng of platinated plasmids in 25 μL Opti-MEM and 0.125 μL Lipofectamine 2000, and subsequently 50 μL of antibiotics-free DMEM supplemented with 10% FBS. After 2 h, the cells were washed with medium and 100 μL of fresh medium was added. The experiment was carried out in quadruplicate.
(§2) GLuc activity was monitored using a luminescence plate reader (Synergy 2, BioTek, Winooski, Vt., USA). A 10 μL volume of medium at different time points (12, 24, 36, 48, 60 h) was transferred into opaque white 96-well plates, and 25 μL of GLuc assay solution (10 μM colelenterazine (NanoLight Technologies, Pinetop, Ariz., USA) in 2.5 mM acidified methanol (100 mM HCl), buffer (10 mM Tris-HCl pH 7.8, 1 mM EDTA, 0.6 M NaCl)) was added by the automatic injector of the instrument.
(§3) Investigations of the cellular processing of Pt-DNA lesions are important for understanding the mechanism of action of platinum drugs. One of the major consequences of Pt-DNA damage is transcription inhibition, the extent of which dictates the efficacy of Pt drugs.
(§4) A549 or HT29 cells were transfected using these platinated transcription probes for 2 h at 37° C. and cell media were collected at 12, 24, 36, 48, and 60 h after the transfection. The levels of GLuc expression in cells were measured using a luminometer. The intensity values were normalized against controls (unplatinated plasmid). Transcription profiles were obtained by plotting normalized levels of GLuc expression against platination levels (Pt/plasmid ratio) at five different time points (FIG. 5). […] In FIG. 5: transcription profiles of globally platinated probes in A549 (top) and HT29 (bottom) cells.
(§5) In another embodiment, A549 or HT29 cells were transfected using the platinated transcription probes, and transcription levels were investigated by determining GLuc expression as measured by […] following addition of coelenterazine as a substrate for the exported enzyme. The emission intensities were normalized against unplatinated plasmids as a control. Transcription profiles were obtained by plotting normalized levels of GLuc expression against platination levels (Pt/plasmid ratio) at five different time points. […] An increase in D0 value at different time points represents restoration of transcription.

calf thymus DNA = test: Ethidium bromide DNA-binding competition, Scatchard analysis; parameters: key: competitive (type A); non-competitive (type D); both (type B); No inhibition of ethidium binding is labeled as type C
Description: Using this approach, it is possible to determine whether the inhibition of ethidium binding is competitive (type A), non-competitive (type D), or both (type B). No inhibition of ethidium binding is labeled as type C.

pGLuc plasmid = test: Global platination of pGLuc plasmid; conditions: for level of DNA-bound compound per amount added (rb vs. rf): 16 h, 24 mM HEPES pH 7.4, 10 mM NaCl; for level of DNA-bound compound per amount added (rb vs. rf) / rb (bound Pt/nucleotide): 37° C.
Protocol: The resulting mixtures were dialyzed (molecular weight cut-off 3.5 kDa) against ddH2O overnight at 4° C. with five changes of ddH2O. The rb values (bound Pt/nucleotide) were determined by UV/Vis and atomic absorption spectroscopy.
In one embodiment, the ratio of bound platinum per plasmid was determined by measuring the Pt concentration by atomic absorption spectroscopy and the DNA concentration by UV/Vis spectroscopy.

[7] = tested on: GLuc expression from transfected A549 cells; test: GLuc transcription assay, globally platinated probes, A549; assay type: cell-based, human; conditions: for transcription inhibition, in words: globally platinated probes; for transcription level (normalized against unplatinated plasmid): Pt/DNA ratio of […] for phenanthriplatin
Protocol: as §1, §2, §3, §4, §5

[8] = Aquation in D2O by 1H NMR; conditions: 37° C.
Protocol: The 1-D ^1H NMR kinetic studies were performed in duplicate as a standard time-arrayed experiment using a variable delayed list. Incremented 1-D spectra were processed in exactly the same way and signals of aromatic amine ligands from platinum compounds were integrated. The relative concentrations of the platinum compound at each time point were calculated from peak integrals. […] Reactions of platinum compounds with 5′-dGMP were performed in NMR tubes containing 2 mM of the platinum compounds and 32 mM (16 equiv) of 5′-dGMP in 10 mM PBS buffer, D2O, pH*7.4 at 37° C.

[9] = equimolar N-AcMet, 37° C.
Protocol: NMR spectra were collected on a Varian 500 spectrometer equipped with a triple-resonance broadband inverse probe and a variable temperature unit. The 1-D ^1H NMR kinetic studies were performed in duplicate as a standard time-arrayed experiment using a variable delayed list. Incremented 1-D spectra were processed in exactly the same way and signals of aromatic amine ligands from platinum compounds were integrated. The relative concentrations of the platinum compound at each time point were calculated from peak integrals. […] Reactions of platinum compounds with N-AcMet were performed in NMR tubes containing 2 mM of the Pt complex and 2 mM (1 equiv) of N-AcMet in 10 mM PBS buffer, D2O, pH*7.4 at 37° C. […] Deuterated 3-(trimethylsilyl)propionic acid sodium salt (TMS-PFASS) was used as an internal standard. The pH* values are the measured pH values without correction for the effect of deuterium on the electrode.
(pH*=refers to a pH measurement uncorrected for the effect of deuterium on the electrode.)

[10] = 16 equiv 5′-dGMP, 37° C., PBS pH 7.4
Protocol: The 1-D ^1H NMR kinetic studies were performed in duplicate as a standard time-arrayed experiment using a variable delayed list. Incremented 1-D spectra were processed in exactly the same way and signals of aromatic amine ligands from platinum compounds were integrated. The relative concentrations of the platinum compound at each time point were calculated from peak integrals. […] Reactions of platinum compounds with 5′-dGMP were performed in NMR tubes containing 2 mM of the platinum compounds and 32 mM (16 equiv) of 5′-dGMP in 10 mM PBS buffer, D2O, pH*7.4 at 37° C. Deuterated 3-(trimethylsilyl)propionic acid sodium salt (TMS-PFASS) was used as an internal standard. The pH* values are the measured pH values without correction for the effect of deuterium on the electrode.

With `O=[N+]([O-])[O-].[NH3+][Pt-2]([NH3+])([Cl])[n+]1cccc2ccccc21` (stereo not drawn) [cis-[Pt(NH3)2(quinoline)Cl]NO3] the IC50 ([1]; U2OS, Table 5) was 23.5 ± 2.7 µM, the IC50 [2] was 38 ± 4.5 µM and the IC50 ([3]; A549, 72-h incubation, Table 5) was 6.11 ± 0.68 µM. The IC50 [4] was 12.2 ± 0.8 µM and the IC50 [5] was 23.5 ± 1.6 µM.
With `O=C1[O][Pt]2([NH][C@@H]3CCCC[C@H]3[NH]2)[O]C1=O` [oxaliplatin] the IC50 ([1]; U2OS (Bone), Table 3) was 6.67 ± 0.59 µM, the IC50 (NTera2 (Testis) cells) was 1.21 ± 0.06 µM and the IC50 ([3]; A549 (Lung), 72-h incubation, Table 3) was 8.79 ± 0.26 µM.
In the case of “cis-[Pt(NH3)2(phenanthridine)Cl]NO3 [phenanthriplatin]”, the “transcription inhibition, in words” value [6] is reported as “as strongly as cisplatin; also recorded: as efficiently as cisplatin”, the “type of inhibition of ethidium binding” value (calf thymus DNA; 12-h incubation period) is reported as “D” and the “type of inhibition of ethidium binding” value (calf thymus DNA; 1 min incubation period) is reported as “C”. The “level of DNA-bound compound per amount added (rb vs. rf)” value (pGLuc plasmid) was “almost identical to that of cisplatin”, the “rb (bound Pt/nucleotide)” value (pGLuc plasmid; rf 0.0008, 16 h) was 0.0015 and the “rb (bound Pt/nucleotide)” value (pGLuc plasmid; rf 0.0019, 16 h) was 0.0019. The “rb (bound Pt/nucleotide)” value (pGLuc plasmid; rf 0.0029, 16 h) was 0.0030, the “rb (bound Pt/nucleotide)” value (pGLuc plasmid; rf 0.0060, 16 h) was 0.0053 and the “transcription inhibition, in words” value [7] was “as strongly as cisplatin; also recorded: as efficiently as cisplatin”. The “time to complete aquation (equilibrium with aqua analogue)” value [8] was no more than 1 h.
With pyriplatin the “reaction with N-AcMet more rapid than that for phenanthriplatin” value [9] was greater than 10 fold, the “second-order rate constant, reaction with N-AcMet” value [9] was 0.156 M⁻¹ s⁻¹ and the “transcription level (normalized against unplatinated plasmid)” value ([6]; 12 h) was 55.3%. The “transcription level (normalized against unplatinated plasmid)” value ([6]; 60 h) was 75.2%, the “transcription inhibition, in words” value [6] was “less efficient than that of either cisplatin or phenanthriplatin by a factor of two” and the IC50 ([3]; A549, 72-h incubation, Table 5) was 62.1 ± 2.3 µM. The “type of inhibition of ethidium binding” value (calf thymus DNA; 12-h incubation period) was “C”, the “type of inhibition of ethidium binding” value (calf thymus DNA; 1 min incubation period) was “C” and the “level of DNA-bound compound per amount added (rb vs. rf)” value (pGLuc plasmid) was “almost identical to that of cisplatin”. For the same compound, the Pt per plasmid (pGLuc plasmid; rf 0.0016) was 13.33 Pt per plasmid, the “rb (bound Pt/nucleotide)” value (pGLuc plasmid; rf 0.0016, 16 h) was 0.0017 and the Pt per plasmid (pGLuc plasmid; rf 0.004) was 31.19 Pt per plasmid. For the same compound, the “rb (bound Pt/nucleotide)” value (pGLuc plasmid; rf 0.004, 16 h) was 0.0039, the Pt per plasmid (pGLuc plasmid; rf 0.0076) was 57.96 Pt per plasmid and the “rb (bound Pt/nucleotide)” value (pGLuc plasmid; rf 0.0076, 16 h) was 0.0073. For the same compound, the Pt per plasmid (pGLuc plasmid; rf 0.015) was 117.31 Pt per plasmid, the “rb (bound Pt/nucleotide)” value (pGLuc plasmid; rf 0.015, 16 h) was 0.0015 and the “transcription level (normalized against unplatinated plasmid)” value ([7]; 12 h) was 55.2%. The “transcription level (normalized against unplatinated plasmid)” value ([7]; 60 h) was 66.8%, the “transcription inhibition, in words” value [7] was “less efficient than that of either cisplatin or phenanthriplatin by a factor of two” and the “time to complete aquation (equilibrium with aqua analogue)” value [8] was no more than 1 h. The IC50 [5] was 82.1 µM and the “pseudo-first order rate constant, reaction with 5′-dGMP” value [10] was 0.29 h⁻¹.
